Laboratory results as given in patent publication US20060205642A1, “Oral methods of treatment using proANF peptides” (priority 2005, published 2006).
Entries after “also recorded” stand apart in the source; their conditions may differ.

Columns and labels:
[1] = Infusion into human subjects with Class III NYHA congestive heart failure; assay type: in vivo, humans
Procedure: Human proANF's 1-30, 31-67, 79-98, and 99-126 (i.e., ANF) were infused into human subjects with Class III New York Heart Association congestive heart failure (CHF). An identical protocol to that used in example V where these peptides were infused into healthy human subjects was utilized. (See Attachment C and F for a detailed description of this protocol). The human subjects with congestive heart failure received an identical dose (0.1 μg/kg body wt/minute for 60 minutes) that the healthy human subjects received. […] This striking urine output secondary to proANF 31-67 was significant at P<0.0001 compared to the pre-infusion output of the congestive heart failure subjects (n=6).

[2] = tested on: particulate guanylate cyclase; assay: Cyclic GMP / particulate guanylate cyclase activation in cultured smooth muscle cells and porcine aorta; assay type: cell-based
[3] = tested on: renal medullary Na+-K+-ATPase; assay: Inhibition of renal medullary Na+-K+-ATPase activity (FIG. 9); assay type: biochemical; details: 10^-11 M, n=6, ANOVA
Description: FIG. 9. Inhibition of renal medullary Na+-K+-ATPase activity by proANF 79-98 (kaliuretic peptide), proANF 1-30 (long acting natriuretic peptide), proANF 31-67 (vessel dilator), and angiotensin II at their […] concentrations.

[4] = tested on: prostaglandin E2 (PGE2) synthesis; assay: Prostaglandin E2 synthesis (FIG. 8); assay type: biochemical; details: n=6, ANOVA and Duncan's MRT
porcine aortas = assay: Vasodilation of porcine aortic strips preconstricted with 0.3 micromolar phenylephrine
Procedure: 30 Kg pigs are sacrificed, and aortic strips are harvested. The strips are attached to F-60 transducer (Narco-BioSystems, Houston, Tex.) and attached to a physiography (Narco-BioSystems) while being submerged in a muscle tissue bath comprising a Krebs Ringer solution at 37° C., with 95% O2-5% CO2, bubbled through the bath. Percentage vasodilation is measured versus time after preconstriction with 0.3 micromolar phenylephrine. […] (Vesely et al., Biochem. Biophys. Res. Commun. 148:1540-1548, 1987).

[5] = Rat clearance model (diuresis and salt excretion); assay type: in vivo, Munich-Wistar rats; details: for FENa, fractional excretion of sodium / UNa, urinary sodium / UNaV, urinary sodium excretion rate / V, urine flow rate: means ± SE
Procedure: The same three peptides and ANF from Example I are tested using the rat clearance model. Six control rats and six experimental Munich-Wistar rats, each weighing 150-200 grams, are used for each peptide, with catheters being placed in both jugular veins and in the femoral artery. The ureters are cannulated for simultaneous urine collections with femoral artery blood collections.
After inserting the catheters, a stabilization of one hour is allowed. A 10 μg/kg bolus of each of the respective human sequences of the peptides is given via the jugular vein to six experimental rats followed by a sustaining infusion of 0.1 μg/kg/min for 60 minutes. Blood and urine samples are collected at 20 minute intervals during this 60 minute infusion. In both the control and experimental animals, hematocrits and plasma sodium values remained at the same levels pre- and post-infusion while blood pressure decreased with each of these peptides (see Attachment B).

[6] = Infusion into healthy human subjects; assay type: in vivo; details: healthy humans; for potassium excretion: 100 ng/kg body wt
Procedure: Infusion of these peptides into healthy human subjects was performed as follows: Human pro-ANF 1-30, pro-ANF 31-67, and pro-ANF 79-98, and hANF (i.e., pro-ANF 99-126, were synthesized by Peninsula Laboratories (Belmont, Calif.). High pressure liquid chromatography (HPLC) analysis was performed on a sample of each of the four peptides to ensure purity. The peptides were dissolved in a sterile 0.9% saline solution to a concentration of 100 μg/ml and dispensed in 2 and 5 ml aliquots into sealed sterile vials. At the time of dispensing, randomly selected vials were tested for pyrogens and sterility. Prior to labeling the vials, the actual peptide content of the dispensed solution were determined by direct radioimmunoassay to account for any possible absorption of the respective peptides to the walls of the vials. All vials were then stored at −80° C. until thawed for individual study.
Normal healthy subjects were chosen on the basis of age (between 20 and 50 years), physical examination and biochemical screenings. The subjects consumed their normal diets prior to testing. The subjects fasted overnight and were tested in the morning in the seated position. Intravenous catheters were placed bilaterally for the administration of pro-hANF 1-30, pro-hANF 31-67, pro-hANF 79-98 and hANF (pro-hANF 99-126) and for blood sampling. After completion of a 45-minute equilibration period, there were three […] phases of the study: baseline, experimental infusion (60 minutes) and recovery (3 hours). The baseline phase consisted of two 30 minute urine collection periods, the experimental phase consisted of three 20 minute urine and plasma collection periods, and the recovery phase consisted of two 30 minute urine and plasma collection periods each hour for three hours post-infusion. Urine output was replaced on a milliliter per milliliter basis throughout the study by administering oral water or orange juice. Urine samples were obtained by voiding at the designated collection periods.
The 36 subjects were divided into 6 groups. One group (i.e., the control group) received a placebo infusion of 0.9% sodium chloride during the experimental infusion phase. […] The four remaining groups of six subjects each received human pro-hANF 1-30, pro-hANF 31-67, pro-hANF 79-98 and HANF. The four groups received the peptides by continuous infusion at the rate of 0.1 μg/kg per minute. The volume administered per hour during the experimental infusion phase was 10 ml for all four peptides and the placebo. All infusions were given by a constant-rate infusion pump, with the final concentrations of prohANFs adjusted for the subjects' body weight. The subjects heart rate and cuff blood pressure were taken at 5 minute intervals throughout the study. The excreted urine was analyzed for sodium concentration.

[7] = tested on: particulate guanylate cyclase; assay: Particulate guanylate cyclase activity in the kidney; assay type: biochemical; details: 1 μM; whole kidney homogenates, renal cortical and medullary membranes, isolated distal nephrons
Procedure: Testing is also carried out to determine biologic effects of these peptides by measuring their effects on particulate guanylate activity in the kidney.

[8] = A, control period (before peptide)
[9] = B, first 60-minute experiment period, 10 μg/kg bolus then 0.1 μg/kg/min
[10] = C, second 60-minute experimental period

H-SSDRSALLKSKLRALLTAPR-OH [proANF 79-98]
hypotension ([1]; CHF patients): None became hypotensive | enhancement of sodium excretion ([1]; CHF subjects, 100 ng/kg body weight/min for 60 minutes): 3 fold | increase of urine flow (maximal) ([1]; NYHA class III CHF, 100 ng/kg body weight/min i.v. for 60 minutes, P<0.001): 4 fold | effects in persons with CHF compared to healthy individuals ([1]; diuretic and natriuretic effects): not blunted in persons with CHF but rather are increased compared to healthy individuals | cyclic GMP levels in cultured smooth muscle cells ([2]; cultured smooth muscle cells): increase cyclic GMP levels | concentration of maximal activation of guanylate cyclase activity ([2]; porcine aorta and isolated smooth muscle cells): about 1 μM | EC50 ([2]; porcine aorta and isolated smooth muscle cells, read-out: half maximal activation (ED5o) of guanylate cyclase): ~10 nM | inhibition of renal medullary Na+-K+-ATPase activity [3]: significant at P<0.01 | prostaglandin E2 (PGE2) synthesis [4]: increase prostaglandin E2 (PGE2) synthesis | increase in cyclic GMP levels over baseline levels associated with vasodilation (porcine aortas): four-to-five fold | FENa, fractional excretion of sodium [5, 8]: 0.030 ± 0.024% | UNa, urinary sodium [5, 8]: 42.27 ± 24.68 meq/1 | UNaV, urinary sodium excretion rate [5, 8]: 90.88 ± 77.76 μeq · min^−1 · g kidney wt^−1 | V, urine flow rate [5, 8]: 2.62 ± 0.70 μl · min^−1 · g kidney wt^−1 | V, urine flow rate ([5]; B, first 60-minute experiment period, 10 μg/kg bolus then 0.1 μg/kg/min via jugular vein): 4.75 ± 1.57 μl · min^−1 · g kidney wt^−1 | FENa, fractional excretion of sodium [5, 9]: 0.200 ± 0.152% | UNa, urinary sodium [5, 9]: 63.30 ± 22.11 meq/1 | UNaV, urinary sodium excretion rate [5, 9]: 363.98 ± 261.85 μeq · min^−1 · g kidney wt^−1 | V, urine flow rate ([5]; C, second 60-minute experimental period, 10 μg/kg bolus then 0.1 μg/kg/min): 5.16 ± 1.04 μl · min^−1 · g kidney wt^−1 | FENa, fractional excretion of sodium [5, 10]: 0.368 ± 0.273% | UNa, urinary sodium [5, 10]: 92.53 ± 29.17 meq/1 | UNaV, urinary sodium excretion rate [5, 10]: 564.22 ± 315.48 μeq · min^−1 · g kidney wt^−1 | potassium excretion ([5]; rat clearance model): very significant stimulator of potassium excretion | sodium excretion (in words) ([5]; rat clearance model): does not significantly increase sodium excretion | potassium excretion [6]: significant (P<0.05) | increase in urine volume (in words) ([6]; 100 ng/kg body wt per minute for 1 hour i.v., n=6, ANOVA): significant | sodium excretion (in words) ([6]; 100 ng/kg body wt per minute for 60 minutes, vs baseline, listed as ProANF 79-98): does not have natriuretic effects in healthy humans | systolic and diastolic blood pressures ([6]; 100 ng/kg body wt per minute i.v. for 60 min, n=6): significant | potassium excretion ([6]; listed as ProANF 79-98): strongest stimulator of potassium excretion of any of the atrial peptides; also recorded: significant (P<0.01) enhancer of potassium excretion | increase in urine flow ([6]; infusion): 2 fold | particulate guanylate cyclase activity [7]: enhance
